These are literature values, as cited in patent EP4434551A1, “METHOD FOR DIAGNOSING AND TREATING NIS-EXPRESSING CARCINOMAS AND METASTASES” (Nuske, Andreas, priority 2023, dated 2024).

In the data set the test system is NIS gene. The conditions noted are these: breast cancer cell line MCF-7.

In the case of `CC1=C(/C=C/C(C)=C/C=C/C(C)=C/C(=O)O)C(C)(C)CCC1` [tRA, trans-retinoic acid], the “induction of the NIS gene” value is given as “induction of the NIS gene”.
